What was measured:
Test in all cases: radiometric filter-binding kinase assay, Kinase HotSpot
Settings in all cases: compound 0.5 µM; ATP 10 µM
[1] = molecular target: PAK4 (human) (UniProt O96013)
[2] = molecular target: GRK7 (human) (UniProt Q8WTQ7)
[3] = molecular target: MLTK (human) (UniProt Q9NYL2)
[4] = molecular target: FLT1 (human) (UniProt P17948)
[5] = molecular target: ADRBK2 (human) (UniProt P35626)
[6] = molecular target: CAMK2A (human) (UniProt Q9UQM7)
[7] = molecular target: CAMKK1 (human) (UniProt Q8N5S9)
[8] = molecular target: STK10 (human) (UniProt O94804)
[9] = molecular target: BMX (human) (UniProt P51813)
Sequence of BMX (human) (P51813 whole entry, looked up): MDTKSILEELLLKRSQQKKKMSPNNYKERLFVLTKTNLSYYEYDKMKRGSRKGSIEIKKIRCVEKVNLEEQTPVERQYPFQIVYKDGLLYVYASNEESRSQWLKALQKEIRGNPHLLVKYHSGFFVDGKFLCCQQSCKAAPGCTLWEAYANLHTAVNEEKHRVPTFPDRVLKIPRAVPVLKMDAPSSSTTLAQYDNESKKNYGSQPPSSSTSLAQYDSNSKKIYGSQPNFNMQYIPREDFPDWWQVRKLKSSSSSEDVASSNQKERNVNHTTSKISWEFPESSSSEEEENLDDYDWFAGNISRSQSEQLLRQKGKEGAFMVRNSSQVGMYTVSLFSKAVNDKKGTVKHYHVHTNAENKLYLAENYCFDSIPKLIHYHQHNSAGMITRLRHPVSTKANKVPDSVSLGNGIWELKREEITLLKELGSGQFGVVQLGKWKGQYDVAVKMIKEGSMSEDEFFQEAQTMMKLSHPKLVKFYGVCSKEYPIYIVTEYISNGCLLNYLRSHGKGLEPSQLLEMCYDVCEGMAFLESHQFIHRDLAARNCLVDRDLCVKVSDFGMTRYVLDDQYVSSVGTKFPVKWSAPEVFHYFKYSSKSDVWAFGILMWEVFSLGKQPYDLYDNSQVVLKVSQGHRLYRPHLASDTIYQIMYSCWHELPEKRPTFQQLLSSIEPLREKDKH

[10] = molecular target: LRRK2 (human) (UniProt Q5S007)
[11] = molecular target: CDC42BPA (human) (UniProt Q5VT25)
[12] = molecular target: ZAP70 (human) (UniProt P43403)
[13] = molecular target: NEK4 (human) (UniProt P51957)
[14] = molecular target: PRKCB1 (human) (UniProt P05771)
[15] = molecular target: PAK6 (human) (UniProt Q9NQU5)
[16] = molecular target: MAP3K2 (human) (UniProt Q9Y2U5)
[17] = molecular target: EPHA1 (human) (UniProt P21709)
[18] = molecular target: YES1 (human) (UniProt P07947)
[19] = molecular target: PRKCD (human) (UniProt Q05655)
[20] = molecular target: PLK3 (human) (UniProt Q9H4B4)
[21] = molecular target: CDK5 CDK5R1 p25 (human) (UniProt Q00535+Q15078)
Sequence of CDK5 CDK5R1 p25 (human) (Q00535 whole entry, looked up): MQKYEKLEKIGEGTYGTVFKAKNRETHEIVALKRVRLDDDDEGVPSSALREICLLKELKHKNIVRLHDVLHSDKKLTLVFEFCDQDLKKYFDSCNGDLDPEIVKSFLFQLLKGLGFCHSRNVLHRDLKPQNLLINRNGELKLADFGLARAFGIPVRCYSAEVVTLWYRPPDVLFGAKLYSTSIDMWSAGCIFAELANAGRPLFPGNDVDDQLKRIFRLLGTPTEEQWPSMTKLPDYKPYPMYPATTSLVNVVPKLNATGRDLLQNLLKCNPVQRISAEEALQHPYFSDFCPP
Sequence of CDK5 CDK5R1 p25 (human) (Q15078 whole entry, looked up): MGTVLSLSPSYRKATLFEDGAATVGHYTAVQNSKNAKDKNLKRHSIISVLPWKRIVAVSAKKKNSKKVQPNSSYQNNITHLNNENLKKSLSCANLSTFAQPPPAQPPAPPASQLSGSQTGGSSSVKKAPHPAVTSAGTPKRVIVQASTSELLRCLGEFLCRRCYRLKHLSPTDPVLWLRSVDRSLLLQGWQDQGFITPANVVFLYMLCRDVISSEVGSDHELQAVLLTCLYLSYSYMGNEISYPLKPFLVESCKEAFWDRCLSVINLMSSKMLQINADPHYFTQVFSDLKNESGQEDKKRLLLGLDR

[22] = molecular target: FGR (human) (UniProt P09769)
Sequence of FGR (human) (P09769 whole entry, looked up): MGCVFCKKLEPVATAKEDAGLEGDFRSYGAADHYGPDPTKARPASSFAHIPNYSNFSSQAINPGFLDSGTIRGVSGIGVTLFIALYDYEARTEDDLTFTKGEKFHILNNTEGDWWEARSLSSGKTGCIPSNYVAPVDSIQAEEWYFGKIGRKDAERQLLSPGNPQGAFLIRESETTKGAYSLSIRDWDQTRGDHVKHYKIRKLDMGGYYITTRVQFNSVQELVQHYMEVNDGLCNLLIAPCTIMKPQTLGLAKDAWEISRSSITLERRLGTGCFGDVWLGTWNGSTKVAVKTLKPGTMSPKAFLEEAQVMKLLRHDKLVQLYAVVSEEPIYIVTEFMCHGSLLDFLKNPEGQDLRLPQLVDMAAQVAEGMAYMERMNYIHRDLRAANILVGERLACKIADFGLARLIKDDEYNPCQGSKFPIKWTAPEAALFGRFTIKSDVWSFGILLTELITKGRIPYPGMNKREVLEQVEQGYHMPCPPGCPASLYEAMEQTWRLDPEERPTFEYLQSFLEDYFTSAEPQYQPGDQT

[23] = molecular target: HIPK2 (human) (UniProt Q9H2X6)
[24] = molecular target: CSK (human) (UniProt P41240)
[25] = molecular target: MARK4 (human) (UniProt Q96L34)
[26] = molecular target: BTK (human) (UniProt Q06187)
[27] = molecular target: TAOK3 (human) (UniProt Q9H2K8)
[28] = molecular target: PRKCI (human) (UniProt P41743)
[29] = molecular target: MARK1 (human) (UniProt Q9P0L2)
[30] = molecular target: ADRBK1 (human) (UniProt P25098)
[31] = molecular target: PRKCG (human) (UniProt P05129)
[32] = molecular target: PRKCE (human) (UniProt Q02156)
[33] = molecular target: CDK9 CCNK (human) (UniProt O75909+P50750)
[34] = molecular target: ITK (human) (UniProt Q08881)
Sequence of ITK (human) (Q08881 whole entry, looked up): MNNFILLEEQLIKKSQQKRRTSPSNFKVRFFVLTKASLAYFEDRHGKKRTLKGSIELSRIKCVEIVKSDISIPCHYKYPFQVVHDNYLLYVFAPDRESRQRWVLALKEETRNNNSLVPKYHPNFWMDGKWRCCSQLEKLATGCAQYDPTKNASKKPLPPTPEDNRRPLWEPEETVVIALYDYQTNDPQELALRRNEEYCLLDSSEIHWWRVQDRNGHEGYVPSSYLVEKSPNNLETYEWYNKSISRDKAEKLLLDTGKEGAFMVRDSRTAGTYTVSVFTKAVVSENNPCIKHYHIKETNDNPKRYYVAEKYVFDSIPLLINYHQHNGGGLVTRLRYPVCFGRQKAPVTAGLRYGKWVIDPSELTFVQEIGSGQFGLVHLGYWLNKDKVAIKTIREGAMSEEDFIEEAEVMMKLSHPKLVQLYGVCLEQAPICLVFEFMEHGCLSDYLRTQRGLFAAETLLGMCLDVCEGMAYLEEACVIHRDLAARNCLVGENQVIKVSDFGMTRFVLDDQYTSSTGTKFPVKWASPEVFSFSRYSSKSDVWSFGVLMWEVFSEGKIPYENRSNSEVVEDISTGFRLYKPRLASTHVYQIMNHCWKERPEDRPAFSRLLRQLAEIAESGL

[35] = molecular target: IRAK4 (human) (UniProt Q9NWZ3)
[36] = molecular target: SGK2 (human) (UniProt Q9HBY8)
Sequence of SGK2 (human) (Q9HBY8 whole entry, looked up): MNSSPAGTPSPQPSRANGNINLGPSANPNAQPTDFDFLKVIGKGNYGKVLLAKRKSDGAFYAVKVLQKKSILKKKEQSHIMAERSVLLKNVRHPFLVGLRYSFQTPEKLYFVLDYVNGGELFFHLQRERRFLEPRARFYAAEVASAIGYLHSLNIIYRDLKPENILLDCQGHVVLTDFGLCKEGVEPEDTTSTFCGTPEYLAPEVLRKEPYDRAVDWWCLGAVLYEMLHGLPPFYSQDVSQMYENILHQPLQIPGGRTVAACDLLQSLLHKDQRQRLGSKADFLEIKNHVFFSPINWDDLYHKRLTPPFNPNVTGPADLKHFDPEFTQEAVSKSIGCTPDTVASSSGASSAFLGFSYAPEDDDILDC

[37] = molecular target: DSTYK (human) (UniProt Q6XUX3)
[38] = molecular target: MYLK (human) (UniProt Q15746)
[39] = molecular target: MATK (human) (UniProt P42679)
[40] = molecular target: SGK3 (human) (UniProt Q96BR1)
Sequence of SGK3 (human) (Q96BR1 whole entry, looked up): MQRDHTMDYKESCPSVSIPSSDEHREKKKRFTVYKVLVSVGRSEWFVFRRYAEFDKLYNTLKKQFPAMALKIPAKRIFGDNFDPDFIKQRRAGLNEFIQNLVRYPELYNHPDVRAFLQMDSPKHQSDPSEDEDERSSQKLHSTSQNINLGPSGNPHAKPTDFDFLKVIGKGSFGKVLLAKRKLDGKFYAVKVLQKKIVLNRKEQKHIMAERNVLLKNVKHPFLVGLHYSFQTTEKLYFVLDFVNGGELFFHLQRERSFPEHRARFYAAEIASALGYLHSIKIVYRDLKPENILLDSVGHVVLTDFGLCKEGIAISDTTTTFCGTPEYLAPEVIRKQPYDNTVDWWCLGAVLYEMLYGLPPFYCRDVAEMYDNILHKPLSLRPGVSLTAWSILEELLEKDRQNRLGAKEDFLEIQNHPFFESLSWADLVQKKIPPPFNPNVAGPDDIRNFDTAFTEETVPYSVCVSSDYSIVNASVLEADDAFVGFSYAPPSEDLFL

[41] = molecular target: CDC42BPB (human) (UniProt Q9Y5S2)
[42] = molecular target: ABL2 (human) (UniProt P42684)

Sequence of FLT1 (human) (P17948 whole entry, looked up): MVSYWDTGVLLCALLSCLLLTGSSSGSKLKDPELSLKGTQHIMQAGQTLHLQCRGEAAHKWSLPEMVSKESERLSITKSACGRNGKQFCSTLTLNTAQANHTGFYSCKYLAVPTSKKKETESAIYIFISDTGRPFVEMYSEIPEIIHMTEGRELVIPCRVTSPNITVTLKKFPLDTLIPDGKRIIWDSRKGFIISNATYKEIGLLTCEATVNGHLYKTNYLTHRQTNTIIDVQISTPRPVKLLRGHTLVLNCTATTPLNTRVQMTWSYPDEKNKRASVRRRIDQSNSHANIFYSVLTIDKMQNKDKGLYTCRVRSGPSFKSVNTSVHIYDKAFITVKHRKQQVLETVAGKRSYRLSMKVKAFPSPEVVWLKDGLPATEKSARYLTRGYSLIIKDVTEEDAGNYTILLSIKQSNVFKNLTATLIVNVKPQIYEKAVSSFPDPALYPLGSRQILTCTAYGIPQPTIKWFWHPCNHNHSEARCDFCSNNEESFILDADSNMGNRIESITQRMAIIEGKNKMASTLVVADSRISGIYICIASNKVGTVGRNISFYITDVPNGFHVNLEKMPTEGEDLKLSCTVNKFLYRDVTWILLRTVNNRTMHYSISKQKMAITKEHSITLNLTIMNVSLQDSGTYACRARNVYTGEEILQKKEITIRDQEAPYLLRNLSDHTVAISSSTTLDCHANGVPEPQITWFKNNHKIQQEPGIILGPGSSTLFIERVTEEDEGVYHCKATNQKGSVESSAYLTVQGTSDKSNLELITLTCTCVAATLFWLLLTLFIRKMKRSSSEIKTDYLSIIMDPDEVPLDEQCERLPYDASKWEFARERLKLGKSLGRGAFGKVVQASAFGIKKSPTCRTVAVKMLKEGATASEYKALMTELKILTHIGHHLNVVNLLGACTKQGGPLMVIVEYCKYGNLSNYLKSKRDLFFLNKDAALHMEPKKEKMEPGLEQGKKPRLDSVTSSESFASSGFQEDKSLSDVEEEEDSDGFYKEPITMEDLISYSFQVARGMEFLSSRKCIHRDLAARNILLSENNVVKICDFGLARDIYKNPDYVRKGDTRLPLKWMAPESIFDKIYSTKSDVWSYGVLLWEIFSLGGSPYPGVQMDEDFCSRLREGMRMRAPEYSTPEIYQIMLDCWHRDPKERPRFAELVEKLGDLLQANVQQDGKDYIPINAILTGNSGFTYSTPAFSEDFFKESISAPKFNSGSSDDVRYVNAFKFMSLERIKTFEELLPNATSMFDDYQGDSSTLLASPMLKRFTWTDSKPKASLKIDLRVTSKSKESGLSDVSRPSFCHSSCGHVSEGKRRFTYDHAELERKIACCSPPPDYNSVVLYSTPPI

Work on `COc1ccc(Cl)cc1NC(=O)Nc1cc(C)nc2ccccc12` yielded a residual activity [1] of 77.9%, a residual activity [2] of 101% and a residual activity [3] of 99.7%. It also gave a residual activity [4] of 86.2%, a residual activity [5] of 103% and a residual activity [6] of 101%. For the same molecule, the residual activity [7] was 113%, the residual activity [8] was 90.9% and the residual activity [9] was 101%. The residual activity [10] was 98%, the residual activity [11] was 98.8% and the residual activity [12] was 94.9%. For the same molecule, the residual activity [13] was 92%, the residual activity [14] was 105% and the residual activity [15] was 96.5%. The residual activity [16] was 98%, the residual activity [17] was 88.6% and the residual activity [18] was 90.1%. For the same molecule, the residual activity [19] was 96.3%, the residual activity [20] was 100% and the residual activity [21] was 105%. For the same molecule, the residual activity [22] was 92%, the residual activity [23] was 101% and the residual activity [24] was 99.9%. It also gave a residual activity [25] of 79.7%, a residual activity [26] of 102% and a residual activity [27] of 105%. It also gave a residual activity [28] of 99.4%, a residual activity [29] of 102% and a residual activity [30] of 100%. The residual activity [31] was 107%, the residual activity [32] was 99.7% and the residual activity [33] was 95.9%. The residual activity [34] was 96%, the residual activity [35] was 99.9% and the residual activity [36] was 96.3%. For the same molecule, the residual activity [37] was 98.8%, the residual activity [38] was 95.7% and the residual activity [39] was 98.2%. The residual activity [40] was 108%, the residual activity [41] was 94.4% and the residual activity [42] was 91.2%.

`Ic1cccc(CSc2nnc(-c3ccncc3)o2)c1` showed a residual activity [1] of 83.6%, a residual activity [2] of 112% and a residual activity [3] of 96.7%. It also gave a residual activity [4] of 91%, a residual activity [5] of 103% and a residual activity [6] of 92.3%. The residual activity [7] was 124%, the residual activity [8] was 93.8% and the residual activity [9] was 86.6%. The residual activity [10] was 91.9%, the residual activity [11] was 98.4% and the residual activity [12] was 107%. For the same molecule, the residual activity [13] was 93.7%, the residual activity [14] was 97.5% and the residual activity [15] was 74%. It also gave a residual activity [16] of 106%, a residual activity [17] of 97% and a residual activity [18] of 95.7%. For the same molecule, the residual activity [19] was 83.7%, the residual activity [20] was 96.1% and the residual activity [21] was 90.5%. The residual activity [22] was 90.9%, the residual activity [23] was 102% and the residual activity [24] was 101%. It also gave a residual activity [25] of 86.8%, a residual activity [26] of 95.6% and a residual activity [27] of 103%. For the same molecule, the residual activity [28] was 96.4%, the residual activity [29] was 111% and the residual activity [30] was 99.9%. The residual activity [31] was 98.7%, the residual activity [32] was 86.5% and the residual activity [33] was 105%. For the same molecule, the residual activity [34] was 102%, the residual activity [35] was 105% and the residual activity [36] was 102%. The residual activity [37] was 94.8%, the residual activity [38] was 99.1% and the residual activity [39] was 94.3%. The residual activity [40] was 98.5%, the residual activity [41] was 96.6% and the residual activity [42] was 110%.

For `CN(C)S(=O)(=O)c1ccc2c(c1)/C(=C/c1cc3c([nH]1)CCCC3)C(=O)N2`, the residual activity [1] was 97.6%, the residual activity [2] was 82.3% and the residual activity [3] was 99.4%. It also gave a residual activity [4] of 84.9%, a residual activity [5] of 97% and a residual activity [6] of 61.4%. For the same molecule, the residual activity [7] was 65.4%, the residual activity [8] was 9.53% and the residual activity [9] was 103%. It also gave a residual activity [10] of 1.78%, a residual activity [11] of 92.3% and a residual activity [12] of 90%. For the same molecule, the residual activity [13] was 99.9%, the residual activity [14] was 106% and the residual activity [15] was 98.9%. For the same molecule, the residual activity [16] was 37%, the residual activity [17] was 94.5% and the residual activity [18] was 13.5%. For the same molecule, the residual activity [19] was 95.5%, the residual activity [20] was 94.5% and the residual activity [21] was 72.9%. It also gave a residual activity [22] of 18.2%, a residual activity [23] of 98.2% and a residual activity [24] of 93.1%. For the same molecule, the residual activity [25] was 51.5%, the residual activity [26] was 97.4% and the residual activity [27] was 55.4%. The residual activity [28] was 95.9%, the residual activity [29] was 54.6% and the residual activity [30] was 95%. The residual activity [31] was 86.8%, the residual activity [32] was 94.6% and the residual activity [33] was 96.9%. It also gave a residual activity [34] of 61.2%, a residual activity [35] of 57.7% and a residual activity [36] of 101%. The residual activity [37] was 96%, the residual activity [38] was 97.2% and the residual activity [39] was 104%. It also gave a residual activity [40] of 98.1%, a residual activity [41] of 101% and a residual activity [42] of 56.8%.

Reference: the kinase profiling compilation of Christmann-Franck et al. (2016)
